From patent US20220031611A1, “IMMUNOSUPPRESSIVE DOSAGE FORMS AND METHODS OF USE” (Gemini Laboratories, LLC, priority 2018, published 2022)

Experiment: Storage stability: % assay of Tacrolimus
Format: physicochemical
Details: active pharmaceutical ingredient (API) lot, comparator
Source text: The pharmaceutical formulations disclosed herein may comprise oral formulations having improved solubility and/or stability profiles. The formulations may be suitable for oral delivery, for example via a solution or suspension. The formulations orally administrated via a solution or suspension can be bioequivalent to formulations administered via oral capsules, or any other administration route. The formulations disclosed herein are stable under standard storage conditions or accelerated conditions. The total amount of impurities in the formulations may be not more than about 0.1 to 3%, and standard storage conditions may comprise a temperature of about 20 to 25° C. (i.e., room temperature) and no more than about 40% Relative Humidity (RH). In one embodiment, the formulations disclosed herein are stable at room temperature for 18 to 24 months or longer. The stability of a formulation according to the present disclosure can be determined, for example, by measuring the physical state of the formulation, including the viscosity and presence of any discoloration and chemical stability by measuring assay of API & related compound. Tables 4 and 5 present stability characteristics of the compositions provided in Examples 1 & 2 above. The following Tables 8-9 show purity of a Tacrolimus oral solution of 1 mg/ml as a percent assay, based on the batch descriptions in Table 7. […]

% Assay: 97.1%
SMILES: C=CC[C@@H]1/C=C(\C)C[C@H](C)C[C@H](OC)[C@H]2O[C@@](O)(C(=O)C(=O)N3CCCC[C@H]3C(=O)O[C@H](/C(C)=C/[C@@H]3CC[C@@H](O)[C@H](OC)C3)[C@H](C)[C@@H](O)CC1=O)[C@H](C)C[C@@H]2OC [API_Lot # DMP (079)-38, Tacrolimus]
